Source: patent US20050136043A1, “TGFbeta signaling inhibitors” (Ludwig Institute for Cancer Research, priority 2003, published 2005)
Where two headings read alike, the source gives them in different places.

Tests used:
[1] = tested on: phosphorylation of endogenous Smad2 by TβR-I in Mv1Lu cells; assay: TGFβ1-dependent phosphorylation of endogenous Smad2 in Mv1Lu cells (pS2 immunoblot); type: cell-based; settings: for Effect of low molecular weight inhibitors on TGFβ1-dependent phosphorylation of Smad2: Mv1Lu cells, TGFβ1 10 ng/ml 30 min, FIG. 3A
[2] = biological target: T1, GST-TβR-I (Homo sapiens, UniProt P36897, T204D); assay: In vitro kinase assay: phosphorylation of GST-Smad3deltaMH1 by GST-TβR-I; type: biochemical
T1 construct: the complete cytoplasmic part (amino acid residues 148-503) of constitutively active TβR-I (T204D) FLAG-tagged at the C-terminus; made in house; host or cells: E. coli
T1 sequence (P36897 148-503 T204D): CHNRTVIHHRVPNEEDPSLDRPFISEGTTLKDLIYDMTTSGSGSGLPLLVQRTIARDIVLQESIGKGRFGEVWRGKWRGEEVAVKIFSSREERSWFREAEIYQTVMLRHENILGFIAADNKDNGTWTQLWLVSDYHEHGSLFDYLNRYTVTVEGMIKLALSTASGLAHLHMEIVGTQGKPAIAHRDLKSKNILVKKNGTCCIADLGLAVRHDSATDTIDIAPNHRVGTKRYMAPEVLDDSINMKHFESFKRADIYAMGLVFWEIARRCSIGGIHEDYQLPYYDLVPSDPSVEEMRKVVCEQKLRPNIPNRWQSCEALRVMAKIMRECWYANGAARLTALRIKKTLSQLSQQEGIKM

[3] = biological target: p38 MAP (Homo sapiens, UniProt Q16539); settings: Calbiochem product data sheets; read-out: IC50 p38 MAP in vitro; cited from earlier work
Sequence of p38 MAP (Q16539 whole entry): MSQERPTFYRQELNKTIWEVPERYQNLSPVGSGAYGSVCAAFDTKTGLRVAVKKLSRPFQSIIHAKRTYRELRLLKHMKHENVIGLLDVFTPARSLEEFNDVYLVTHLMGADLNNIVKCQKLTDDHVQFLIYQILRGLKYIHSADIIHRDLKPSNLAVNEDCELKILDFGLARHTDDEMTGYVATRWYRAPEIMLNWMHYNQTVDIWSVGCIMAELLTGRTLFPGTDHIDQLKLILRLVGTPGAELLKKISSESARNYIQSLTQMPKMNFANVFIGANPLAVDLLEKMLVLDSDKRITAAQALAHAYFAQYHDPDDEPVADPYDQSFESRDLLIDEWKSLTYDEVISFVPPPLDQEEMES

[4] = biological target: T1, GST-TβR-I; assay: GST-TβR-I autophosphorylation assay; type: biochemical; settings: peptides at 1 and 10 μM, FIG. 4A
Description: In vitro kinase assay: GST-TβRI activity was assayed in vitro using the known TβR-I substrates GST-Smad3deltaMH1, GST-Smad2; GST-Smad1 was used as a control for specificity. The reaction mixture (20 μl) contained 20 mM HEPES (pH 7.4), 10 mM MgCl2, 2 mM MnCl2, 1 mM dithiothreitol (DTT), 5 μM ATP plus 0.5 μCi [γ^32P]ATP (Redivue, Amersham Biosciences), and inhibitors at different concentrations. The reaction was initiated by an addition of 0.02 μg purified GST-TβRI, followed by incubation at 22° C. for 20 min. Reaction was terminated by addition of 5 μl of 5× SDS-sample buffer. Samples were subjected to SDS-PAGE followed by analysis in a FujiX2000 phosphorimager. For all in vitro enzyme assays, the percent inhibition was calculated as 100×(1-Ai/A0), where Ai and A0 are levels of GST-Smad phosphorylation in the presence and absence of inhibitors, respectively. […] Phosphorylated GST-Smad3deltaMH1 and autophosphorylated GST-TβRI were analyzed by tryptic phosphopeptide mapping, as described previously.
A GST-TβR-I autophosphorylation assay was performed in the absence or presence of antp-Sm2S (SEQ ID NO:3), antp-Sm2A (SEQ ID NO:2) and antp-Sm5A (SEQ ID NO:4) peptides at concentrations of 1 and 10 μM, as indicated (FIG. 4A).

[5] = tested on: Mv1Lu cells; assay: Growth inhibition assay, [3H]thymidine incorporation; type: cell-based; settings: peptide 50 μM, TGFβ1 0.1 ng/ml, 24 hours, FIG. 7
Description: Growth inhibition assay: Growth inhibition assay with MV1Lu cells, using evaluation of [^3H]thymidine incorporation, was performed as described earlier. Briefly, cells were preincubated with peptides for 30 min, and then treated or not with TGFβ1 (0.1 ng/ml) for 24 h. During the last two hours of incubation, [^3H]thymidine was added. Radioactivity incorporated into DNA was measured in a scintillation counter. No cytotoxic effects of peptides were observed after 24 h incubation with cells, as evaluated by observation of cells in a microscope.
To explore whether the antp-Sm2A (SEQ ID NO:2) peptide can interfere with the TGFβ-dependent effects on cells, we performed an assay with Mv1Lu cells, which are widely used in studies of TGFβ effects and are potently growth-inhibited by TGFβ [29]. […] [^3H]thymidine was added to cells for last two hours of incubation, and radioactivity incorporated into DNA was measured.

[6] = biological target: T2, constitutively active TβR-I (Homo sapiens, UniProt P36897, T204D); assay: In vitro kinase assay with immunoprecipitated constitutively active TβR-I expressed in Mv1Lu cells; type: biochemical; settings: immunoprecipitated from Mv1Lu cells, data not shown
T2 construct: made in house; host or cells: Mv1Lu cells (expressed, immunoprecipitated)
T2 sequence (P36897 34-503 T204D): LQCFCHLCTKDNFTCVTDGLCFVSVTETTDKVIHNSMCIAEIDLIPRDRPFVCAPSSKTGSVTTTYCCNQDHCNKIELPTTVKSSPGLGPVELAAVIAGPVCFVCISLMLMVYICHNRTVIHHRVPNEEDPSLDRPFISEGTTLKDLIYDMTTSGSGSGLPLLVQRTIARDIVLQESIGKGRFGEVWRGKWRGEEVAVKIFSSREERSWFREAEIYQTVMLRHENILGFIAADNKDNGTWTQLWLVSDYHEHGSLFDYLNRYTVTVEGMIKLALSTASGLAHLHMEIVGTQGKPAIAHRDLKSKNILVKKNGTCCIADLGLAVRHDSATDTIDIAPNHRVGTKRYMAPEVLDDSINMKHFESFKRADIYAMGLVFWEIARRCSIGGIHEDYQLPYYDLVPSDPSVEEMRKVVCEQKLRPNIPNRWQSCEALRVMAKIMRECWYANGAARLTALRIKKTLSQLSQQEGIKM

[7] = in vitro kinase assay, 5 μM ATP, read-out: IC50 GST-TβRI in vitro

CC1CNCCN1S(=O)(=O)c1cccc2cnccc12.Cl (stereo not shown) [H7]
Effect of low molecular weight inhibitors on TGFβ1-dependent phosphorylation of Smad2 [1]: weaker than that of SB203580
IC50 [2, 7]: 200 µM
Effect on the kinase activity of GST-TβR-I (phosphorylation of GST-Smad3deltaMH1) ([2]; in vitro kinase assay, FIG. 2A): inhibited

COc1cccc(-c2cc(=O)c3ccccc3o2)c1N [PD98058]
Effect on the kinase activity of GST-TβR-I (phosphorylation of GST-Smad3deltaMH1) ([2]; in vitro kinase assay, FIG. 2A): did not have an effect

Oc1ccc(-c2nc(-c3ccncc3)c(-c3ccc(F)cc3)[nH]2)cc1 [SB202190]
IC50 ([2]; read-out: IC50 for inhibition of GST-TβR-I): 0.02 µM

CCc1[nH]c(-c2ccc(OC)cc2)nc1-c1ccncc1 [SB202474]
IC50 [2, 7]: 30 µM

C[S+]([O-])c1ccc(-c2nc(-c3ccc(F)cc3)c(-c3ccncc3)[nH]2)cc1 (stereo not shown) [SB203580]
Effect of low molecular weight inhibitors on TGFβ1-dependent phosphorylation of Smad2 [1]: significantly reduced
inhibition at 25 µM ([1]; Mv1Lu, 0.5 h, read-out: Inhibition of TGFβ1-induced Smad2 phosphorylation): 57%

Cc1nc(-c2ccncc2)c(-c2ccccc2)o1 [SC68376]
IC50 [2, 7]: 5 µM
IC50 [3]: 2 to 5 µM

CC[C@H](CO)Nc1nc(NCc2ccccc2)c2ncn(C(C)C)c2n1 [roscovitine]
Effect on the kinase activity of GST-TβR-I (phosphorylation of GST-Smad3deltaMH1) [2]: did not have an effect

CN[C@@H]1C[C@H]2O[C@@](C)([C@@H]1OC)n1c3ccccc3c3c4c(c5c6ccccc6n2c5c31)C(=O)NC4 [staurosporine]
Effect on the kinase activity of GST-TβR-I (phosphorylation of GST-Smad3deltaMH1) [2]: did not have an effect

RQIKIWFQNRRMKWKKTQMGSPLNPISAVA (listed as Homo sapiens) [antp-Sm5A, penetratin fused to Smad5 C-terminus with serines replaced by alanine; specificity control, reference compound]
Effect of peptides on TGFβ1-dependent phosphorylation of endogenous Smad2 ([1]; Mv1Lu cells pretreated with peptide, 15 min TGFβ1, FIG. 6A): did not have any effect
Inhibition of autophosphorylation of GST-TβR-I [4]: No or only weak inhibition
Reversion of the inhibitory action of TGFβ1 on DNA synthesis [5]: did not have any effect
Inhibition of autophosphorylation of TβR-I [6]: only a marginal effect
